# Reference: US9926302B2, “Heteroaryl substituted heterocyclyl sulfones” (priority 2014, dated 2018)
# Molecular target: T1, Human CaV2.2 channels (Homo sapiens, UniProt Q00975)
# T1 construct: expressed in transfected cells
# Assay: Fluorescence assay for CaV2.2 channels using potassium depolarization to induce channel opening (FLIPR, Fluo 4)
# Assay type: cell-based
# Conditions: 3 μM test compound; alternative assay buffer 30 mM KCl (inactivated channel state); HEK293 cells stably expressing human CaV2.2
# Description: In the process, the Ca^2+ influx is quantified in the FLIPR assay with the aid of a Ca^2+-sensitive dye (type Fluo-4, Molecular Probes Europe BV, Leiden, the Netherlands) in a fluorescent imaging plate reader (FLIPR 3, Molecular Devices, Sunnyvale, USA), as described hereinafter.
# 2.1 Fluorescence Assay for CaV2.2 Channels Using Potassium Depolarization to Induce Channel Opening
# Human CaV2.2 channels were stably expressed in HEK293 cells together with alpha2-delta and beta subunits of voltage gated calcium channels. In addition, an inwardly rectifying potassium channel (Kir2.3) was stably expressed in these cells to augment control of the cell membrane potential by the concentration of extracellular potassium ions. Raise of the extracellular potassium concentration leads to depolarization of the membrane potential and thus regulates the voltage dependent state of CaV2.2 channels. For preparation, cells were seeded in black poly-D-lysine coated 96-well plates (Becton Dickinson, Biocoat 4640) in 100 μL medium [500 mL DMEM/F-12 plus Glutamax (Invitrogen 31331-093) plus 5.5 mL MEM NEAA 100× (Invitrogen 11140-035) plus 50 mL FBS decomplemented (Invitrogen 10270-106) plus 200 μg/mL Geneticin (Invitrogen 10131-027) plus 50 μg/mL Hygromycin B (Invitrogen 10687-010) plus 2 μg/mL Blasticidin (anti-bl5b Invivo-Gen) plus 0.2 μg/mL Puromycin (A 11138-03)] at a cell density of 30.000 cells per well. Plates were incubated at 37° C. (5% CO2) for 20 to 23 h. On the day of experiment medium was discarded and cells were loaded with Fluo 4 by addition of 100 μL of basic assay buffer (10 mM HEPES, 1 mM KCl, 149 mM NaCl, 0.8 mM CaCl2, 1.7 mM MgCl2, 10 mM Glucose, 0.1% BSA. pH 7.4) containing 2 μM Fluo 4 (Molecular Probes; F-14201), 0.01% pluronic acid (Molecular Probes; P-6866) and 2.5 mM probenecid (Molecular Probes; P36400). Cells were incubated in the dark at 25° C. for 60 min. Then dye containing buffer was discarded and 100 μL basic (1 mM KCl) or alternative (30 mM KCl) assay buffer was added. The alternative assay buffer contained altered concentrations of KCl (30 mM) and NaCl (120 mM) and was used in order to promote the inactivated channel state. After that 25 μL of basic or alternative assay buffer with or without test compound were added and cells were incubated again in the dark at 25° C. for 15 min. Fluorescence intensity was measured on a FLIPR 3 instrument (Molecular Devices Corp., Sunnyvale, Calif.) with excitation at 480 nm and emission at 535 nm. After continuously reading fluorescence for 30 sec, 50 μL of basic assay buffer containing 210 mM KCl (NaCl omitted) were added for depolarization. Peak fluorescent signal intensity was determined and the amplitude of the peak signal, normalized to base line, was used to measure channel inhibition by test compounds.
# T1 sequence (P54289 947-1103): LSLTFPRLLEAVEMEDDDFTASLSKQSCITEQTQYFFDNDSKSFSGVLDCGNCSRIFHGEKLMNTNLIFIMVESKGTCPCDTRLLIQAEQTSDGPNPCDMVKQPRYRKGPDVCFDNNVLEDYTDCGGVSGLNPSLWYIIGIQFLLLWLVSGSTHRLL
# T1 sequence (P54289 25-946): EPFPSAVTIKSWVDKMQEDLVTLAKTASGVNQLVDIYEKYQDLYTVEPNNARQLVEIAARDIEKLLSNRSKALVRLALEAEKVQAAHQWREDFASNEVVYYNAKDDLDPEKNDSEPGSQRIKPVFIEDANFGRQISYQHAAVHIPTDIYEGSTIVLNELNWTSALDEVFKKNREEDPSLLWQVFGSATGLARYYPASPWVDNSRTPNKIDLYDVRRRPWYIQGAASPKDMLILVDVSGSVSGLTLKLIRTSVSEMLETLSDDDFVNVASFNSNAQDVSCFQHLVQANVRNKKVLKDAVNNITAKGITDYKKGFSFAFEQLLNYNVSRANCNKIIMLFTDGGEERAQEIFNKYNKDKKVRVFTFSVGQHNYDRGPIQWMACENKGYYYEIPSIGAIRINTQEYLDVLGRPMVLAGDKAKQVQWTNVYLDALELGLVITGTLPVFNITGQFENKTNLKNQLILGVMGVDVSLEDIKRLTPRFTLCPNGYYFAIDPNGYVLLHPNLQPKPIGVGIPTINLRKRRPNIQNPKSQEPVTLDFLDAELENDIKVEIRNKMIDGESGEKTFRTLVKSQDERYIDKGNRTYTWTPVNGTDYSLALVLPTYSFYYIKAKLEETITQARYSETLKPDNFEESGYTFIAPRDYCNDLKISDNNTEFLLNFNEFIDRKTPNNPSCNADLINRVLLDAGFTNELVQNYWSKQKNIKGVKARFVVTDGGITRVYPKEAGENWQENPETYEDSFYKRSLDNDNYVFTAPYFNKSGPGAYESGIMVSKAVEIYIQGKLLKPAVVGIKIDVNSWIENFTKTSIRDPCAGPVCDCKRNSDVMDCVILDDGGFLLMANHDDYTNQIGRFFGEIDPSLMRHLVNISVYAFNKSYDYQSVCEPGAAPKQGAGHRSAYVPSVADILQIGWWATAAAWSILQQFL
# T1 sequence (P54284 whole entry, further chain): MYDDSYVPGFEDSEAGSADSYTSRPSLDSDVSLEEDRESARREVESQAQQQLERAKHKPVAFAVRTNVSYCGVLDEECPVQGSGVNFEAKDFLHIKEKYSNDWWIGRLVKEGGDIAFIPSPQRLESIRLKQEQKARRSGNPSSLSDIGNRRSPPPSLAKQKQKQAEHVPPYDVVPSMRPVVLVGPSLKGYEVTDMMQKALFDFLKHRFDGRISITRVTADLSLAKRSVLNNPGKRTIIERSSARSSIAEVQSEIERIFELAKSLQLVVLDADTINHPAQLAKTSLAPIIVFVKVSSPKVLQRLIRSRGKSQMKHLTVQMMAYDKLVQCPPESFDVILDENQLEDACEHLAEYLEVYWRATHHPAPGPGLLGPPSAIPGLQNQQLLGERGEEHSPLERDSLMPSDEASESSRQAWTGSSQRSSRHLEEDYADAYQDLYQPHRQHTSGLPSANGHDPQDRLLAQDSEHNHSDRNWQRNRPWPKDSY
# T1 sequence (Q00975 whole entry): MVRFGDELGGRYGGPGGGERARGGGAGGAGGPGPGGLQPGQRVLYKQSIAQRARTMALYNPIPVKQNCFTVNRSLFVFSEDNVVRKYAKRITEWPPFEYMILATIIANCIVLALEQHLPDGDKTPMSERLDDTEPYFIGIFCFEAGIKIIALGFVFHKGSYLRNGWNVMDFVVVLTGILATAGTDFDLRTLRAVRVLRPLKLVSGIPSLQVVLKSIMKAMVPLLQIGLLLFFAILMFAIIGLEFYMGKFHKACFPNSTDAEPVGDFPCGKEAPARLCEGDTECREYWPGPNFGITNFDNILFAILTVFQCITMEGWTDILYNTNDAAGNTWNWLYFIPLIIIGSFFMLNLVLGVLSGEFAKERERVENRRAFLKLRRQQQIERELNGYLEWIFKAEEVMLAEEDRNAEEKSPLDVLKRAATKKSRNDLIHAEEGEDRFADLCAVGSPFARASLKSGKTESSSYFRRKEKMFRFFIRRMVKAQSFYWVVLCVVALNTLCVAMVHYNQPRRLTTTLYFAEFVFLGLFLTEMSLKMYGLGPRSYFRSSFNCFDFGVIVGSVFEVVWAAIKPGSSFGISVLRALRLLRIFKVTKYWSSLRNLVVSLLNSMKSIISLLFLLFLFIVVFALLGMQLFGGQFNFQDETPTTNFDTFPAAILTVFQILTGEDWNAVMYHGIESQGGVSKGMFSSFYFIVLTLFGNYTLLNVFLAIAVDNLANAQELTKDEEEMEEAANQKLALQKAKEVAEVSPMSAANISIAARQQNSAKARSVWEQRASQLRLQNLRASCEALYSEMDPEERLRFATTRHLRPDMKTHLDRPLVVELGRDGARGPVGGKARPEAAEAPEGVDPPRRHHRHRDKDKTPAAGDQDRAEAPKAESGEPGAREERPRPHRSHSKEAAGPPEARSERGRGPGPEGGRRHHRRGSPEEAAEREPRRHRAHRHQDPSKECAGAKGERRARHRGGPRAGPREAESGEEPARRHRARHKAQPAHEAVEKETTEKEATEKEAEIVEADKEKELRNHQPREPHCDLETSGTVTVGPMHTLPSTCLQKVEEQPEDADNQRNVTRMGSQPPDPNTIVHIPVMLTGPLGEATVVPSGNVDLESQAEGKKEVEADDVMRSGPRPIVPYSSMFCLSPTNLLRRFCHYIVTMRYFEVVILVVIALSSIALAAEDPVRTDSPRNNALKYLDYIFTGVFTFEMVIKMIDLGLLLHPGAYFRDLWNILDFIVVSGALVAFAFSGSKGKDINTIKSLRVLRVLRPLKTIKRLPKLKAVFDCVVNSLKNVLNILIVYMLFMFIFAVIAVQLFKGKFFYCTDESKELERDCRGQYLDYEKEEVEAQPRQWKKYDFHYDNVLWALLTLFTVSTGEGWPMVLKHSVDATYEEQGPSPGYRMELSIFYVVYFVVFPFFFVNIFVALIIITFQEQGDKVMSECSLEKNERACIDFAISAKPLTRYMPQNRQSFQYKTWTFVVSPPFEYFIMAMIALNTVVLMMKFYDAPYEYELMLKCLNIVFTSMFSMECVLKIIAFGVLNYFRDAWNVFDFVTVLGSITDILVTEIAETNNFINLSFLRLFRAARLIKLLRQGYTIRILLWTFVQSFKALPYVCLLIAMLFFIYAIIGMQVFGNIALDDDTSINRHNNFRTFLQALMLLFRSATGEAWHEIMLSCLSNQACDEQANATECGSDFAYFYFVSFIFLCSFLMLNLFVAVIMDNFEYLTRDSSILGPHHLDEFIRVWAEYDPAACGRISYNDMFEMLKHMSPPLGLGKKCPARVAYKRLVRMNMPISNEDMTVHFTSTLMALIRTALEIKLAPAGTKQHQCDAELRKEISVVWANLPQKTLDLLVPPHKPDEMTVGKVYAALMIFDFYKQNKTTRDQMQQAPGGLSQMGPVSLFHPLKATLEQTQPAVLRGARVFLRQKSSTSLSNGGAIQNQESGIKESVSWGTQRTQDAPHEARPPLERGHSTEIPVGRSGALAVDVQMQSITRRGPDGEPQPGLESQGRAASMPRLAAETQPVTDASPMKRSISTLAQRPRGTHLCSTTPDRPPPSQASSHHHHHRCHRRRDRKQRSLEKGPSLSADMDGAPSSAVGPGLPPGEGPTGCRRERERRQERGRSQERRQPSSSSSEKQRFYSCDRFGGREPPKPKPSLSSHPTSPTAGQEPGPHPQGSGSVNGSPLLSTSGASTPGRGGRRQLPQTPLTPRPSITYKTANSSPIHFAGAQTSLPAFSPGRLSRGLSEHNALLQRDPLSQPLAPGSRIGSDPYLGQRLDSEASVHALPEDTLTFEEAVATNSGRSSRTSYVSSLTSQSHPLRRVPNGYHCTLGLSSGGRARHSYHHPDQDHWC
row,Compound,Activity Category: %-Inhib (CaV2.2) @3 μM @30 mM KCl
1,"Cc1cc(S(C)(=O)=O)cnc1C1CC(C)(S(=O)(=O)c2cc(F)cc(C(F)(F)F)c2)CCO1 (stereo not shown) [SC-444, 2-[4-[[3-Fluoro-5-(trifluoromethyl)-phenyl]sulfonyl]-4-methyl-tetrahydro-pyran-2-yl]-3-methyl-5-methylsulfonyl-pyridine]",B (%-Inhibition >75% up to ≤95%)
2,"COc1cc(C#N)c(C2CC(C)(S(=O)(=O)c3cccc(C(F)(F)F)c3)CCO2)cn1 (stereo not shown) [SC-260, 2-Methoxy-5-[4-methyl-4-[[3-(trifluoromethyl)phenyl]sulfonyl]-tetrahydro-pyran-2-yl]-isonicotinonitrile]",A (%-Inhibition >95%)
3,"CC1(S(=O)(=O)c2cccc(OC(F)(F)F)c2)CCOC(c2ncc(S(C)(=O)=O)cc2Cl)C1 (stereo not shown) [SC-219, 3-Chloro-5-methylsulfonyl-2-[4-methyl-4-[[3-(trifluoromethyloxy)-phenyl]sulfonyl]-tetrahydro-pyran-2-yl]-pyridine]",A (%-Inhibition >95%)
4,"COc1cc(F)c(C2CC(C)(S(=O)(=O)c3cccc(C(F)(F)F)c3)CCO2)cn1 (stereo not shown) [SC-258, 4-Fluoro-2-methoxy-5-[4-methyl-4-[[3-(trifluoromethyl)phenyl]sulfonyl]-tetrahydro-pyran-2-yl]-pyridine]",A (%-Inhibition >95%)

# Same assay, conditions: HEK293, 3 μM test compound; alternative assay buffer 30 mM KCl (inactivated channel state); HEK293 cells stably expressing human CaV2.2; read-out: Activity Category: %-Inhib (CaV2.2) @3 μM @30 mM KCl
row,Compound,inhibition at 3 µM
1,"CC1(S(=O)(=O)c2cccc(C(F)(F)F)c2)CCOC(c2ncc(OC(F)F)cc2Cl)C1 (racemic) [SC-438, 3-Chloro-5-(difluoro-methoxy)-2-[4-methyl-4-[[3-(trifluoromethyl)phenyl]sulfonyl]-tetrahydro-pyran-2-yl]-pyridine]",> 95%
2,"CC(C)Oc1ccc(C2CC(C)(S(=O)(=O)c3cccc(C(F)(F)F)c3)CCO2)cn1 (stereo not shown) [SC-300, 2-Isopropoxy-5-[4-methyl-4-[[3-(trifluoromethyl)phenyl]sulfonyl]-tetrahydro-pyran-2-yl]-pyridine]",> 95%
3,"CC1(S(=O)(=O)c2cccc(OC(F)(F)F)c2)CCOC(c2ncc(S(C)(=O)=O)cc2Cl)C1 (stereo not shown) [SC-218, 3-Chloro-5-methylsulfonyl-2-[4-methyl-4-[[3-(trifluoromethyloxy)-phenyl]sulfonyl]-tetrahydro-pyran-2-yl]-pyridine]",75 to 95%
4,"Cc1cc(S(C)(=O)=O)cnc1C1CC(C)(S(=O)(=O)c2cccc(C(F)(F)F)c2)CCO1 (racemic) [SC-441, 3-Methyl-5-methylsulfonyl-2-[4-methyl-4-[[3-(trifluoromethyl)phenyl]sulfonyl]-tetrahydro-pyran-2-yl]-pyridine]",75 to 95%
5,"Cn1nc(S(C)(=O)=O)cc1C1CC(C)(S(=O)(=O)c2cccc(C(F)(F)F)c2)CCO1 (racemic) [SC-433, 1-Methyl-3-methylsulfonyl-5-[4-methyl-4-[[3-(trifluoromethyl)phenyl]sulfonyl]-tetrahydro-pyran-2-yl]-1H-pyrazole]",40 to 75%
6,"COCCOc1ccc(C2CC(C)(S(=O)(=O)c3cccc(C(F)(F)F)c3)CCO2)cn1 (stereo not shown) [SC-404, 2-(2-Methoxy-ethoxy)-5-[4-methyl-4-[[3-(trifluoromethyl)phenyl]sulfonyl]-tetrahydro-pyran-2-yl]-pyridine]",75 to 95%
7,"COCCOc1ccc(C2CC(C)(S(=O)(=O)c3cccc(C(F)(F)F)c3)CCO2)cn1 (racemic) [SC-420, 2-(2-Methoxy-ethoxy)-5-[4-methyl-4-[[3-(trifluoromethyl)phenyl]sulfonyl]-tetrahydro-pyran-2-yl]-pyridine]",75 to 95%
8,"CC1(S(=O)(=O)c2cccc(C(F)(F)F)c2)CCOC(c2ccc(C(F)(F)F)nc2)C1 (stereo not shown) [SC-315, 5-[4-Methyl-4-[[3-(trifluoromethyl)phenyl]sulfonyl]-tetrahydro-pyran-2-yl]-2-(trifluoromethyl)-pyridine]",> 95%
9,"C[S+]([O-])c1cc(C(F)(F)F)cnc1C1CC(C)(S(=O)(=O)c2cccc(C(F)(F)F)c2)CCO1 (stereo not shown) [SC-228, 3-(Methylsulfinyl)-2-[4-methyl-4-[[3-(trifluoromethyl)phenyl]sulfonyl]-tetrahydro-pyran-2-yl]-5-(trifluoromethyl)-pyridine]",> 95%
